According to patent publication US12370139B2 (TREEWAY TW001 B.V., priority 2017, dated 2025):
Read-outs that look alike come from different tables or passages of the source. One block for each compound: values may come before it.

Assays:
[1] = Example 2: repeat of the Example 1 study, with edaravone metabolites in plasma; assay type: in vivo, human; settings: for Ratio conjugate-to-parent drug (AUClast): ratio calculated using AUClast (h · μMol/L); for Edaravone plasma concentration: time Pre; for AUC(0-inf): extrapolated to infinity
Source text: The study described in Example 1 was repeated, again using 18 healthy male and female human subjects.

[2] = Example 1: single dose, randomized, two-period, cross-over pharmacokinetic study, oral solution vs i.v. infusion; assay type: in vivo, human; settings: for Edaravone plasma concentration: time Pre
Description: A single dose, randomized, two-period, cross-over study was conducted in 18 healthy male and female human subjects.

[3] = Dissolution rate of edaravone in water; assay type: physicochemical; settings: in the presence of an alkalizing agent, especially at at least 0.3 grams edaravone per liter
Source text: The oxides and hydroxides of alkaline metals are preferably selected from NaOH, KOH, LiOH and combinations thereof. The oxides and hydroxides of alkali-earth metals are preferably selected from Ca(OH)2, CaO, Mg(OH)2, MgO and combinations thereof. The salts of weak organic and weak inorganic acids are preferably selected from carbonate, bicarbonate, borate, carboxylate (e.g. lactate, citrate, acetate, formate and oxalate), phosphate, sulfate and combinations thereof. The alkaline amines are preferably selected from tris(hydroxymethyl)aminomethane, ethanolamine, diethanolamine, triethanolamine, N-methyl-glucamine, glucosamine, ethylenediamine, diethylamine, triethylamine, isopropylamine, diisopropylamine, ammonia and combinations thereof. The alkaline amino acids are preferably selected from arginine, histidine, lysine and combinations thereof.

[4] = male Wistar rats, cited from earlier work
[5] = SD rats, in comparison to intravenous administration; cited from earlier work
[6] = rats, oral, dose of 27 mg/kg, suspended with 0.5% CMC-Na, compared to 100% for intravenous; cited from earlier work
[7] = APP/PS1 Mice, oral 33.2 mg/kg/d; cited from earlier work
APP/PS1 mice = settings: cited from earlier work
[8] = i.v. infusion of edaravone 60 mg (n = 18)
[9] = oral administration of edaravone 140 mg (n = 18)
[10] = both sexes, human, plasma, iv, Example 2, i.v. infusion 60 mg
[11] = both sexes, human, plasma, iv, Example 2, i.v. infusion (60 mg)
[12] = both sexes, human, plasma, Example 2, oral administration 140 mg
[13] = both sexes, human, plasma, Example 2, oral administration (140 mg)

Ratio conjugate-to-parent drug (AUClast) [1, 8]: 1.4 ± 1.0
Ratio conjugate-to-parent drug (AUClast) [1, 9]: 1.8 ± 0.8
Structure (SMILES): Cc1cc(O[C@@H]2O[C@H](C(=O)O)[C@@H](O)[C@H](O)[C@H]2O)n(-c2ccccc2)n1 [Glucuronide conjugate]

Edaravone plasma concentration ([2]; Example 1, i.v. infusion (60 mg, 60 minutes)): 0 ng/mL
Edaravone plasma concentration ([2]; Example 1, oral administration (140 mg)): 0 ng/mL
systemic bioavailability (Fabs) ([2]; Example 1, oral compared to i.v. infusion): 79%
time at which peak maximum concentrations are reached after administration ([2]; Example 1, orally administered): about 15 min
Edaravone plasma concentration ([1]; Example 2, i.v. infusion (60 mg)): 0 ng/mL
Edaravone plasma concentration ([1]; Example 2, oral administration (140 mg)): 0 ng/mL
time at which peak maximum concentrations are reached after administration ([1]; Example 2, orally administered): about 14 min
bioavailability ([1]; both sexes, human, plasma, 140 mg, Example 2, oral compared to i.v. infusion, read-out: systemic bioavailability (Fabs)): 93%
AUC(0-t) [1, 10]: 1220 ng·h/mL
Cmax [1, 10]: 943 ng/mL
AUC(0-inf) [1, 10]: 1210 ng·h/mL
concentration at 0.17 h [1, 11]: 373 ng/mL
concentration at 0.5 hrs [1, 11]: 696 ng/mL
concentration at 1 hrs [1, 11]: 943 ng/mL
concentration at 1.5 hrs [1, 11]: 298 ng/mL
concentration at 4 h [1, 11]: 36 ng/mL
concentration at 6 h [1, 11]: 13 ng/mL
concentration at 8 h [1, 11]: 7 ng/mL
concentration at 10 h [1, 11]: 5 ng/mL
AUC(0-t) [1, 12]: 2560 ng·h/mL
Cmax [1, 12]: 3530 ng/mL
Tmax [1, 12]: 13.8 min
AUC(0-inf) [1, 12]: 2570 ng·h/mL
concentration at 0.083 h ([1]; both sexes, human, plasma, Example 2, oral administration (140 mg), 0.083 hrs): 1530 ng/mL
concentration at 0.17 h [1, 13]: 2760 ng/mL
concentration at […] ([1]; both sexes, human, plasma, Example 2, oral administration (140 mg), 0.25 hrs): 3060 ng/mL
concentration at 0.5 hrs [1, 13]: 2000 ng/mL
concentration at 1 hrs [1, 13]: 762 ng/mL
concentration at 1.5 hrs [1, 13]: 388 ng/mL
concentration at 2 hrs ([1]; both sexes, human, plasma, Example 2, oral administration (140 mg), 2 hrs): 228 ng/mL
concentration at 4 h [1, 13]: 63 ng/mL
concentration at 6 h [1, 13]: 24 ng/mL
concentration at 8 h [1, 13]: 13 ng/mL
concentration at 10 h [1, 13]: 8 ng/mL
rate at which edaravone dissolves in water [3]: increased substantially
Structure (SMILES): CC1=NN(c2ccccc2)C(=O)C1 [Edaravone, 3-methyl-1-phenyl-2-pyrazolin-5-one]
contribution of gastrointestinal metabolism to the overall plasma metabolism profile ([1]; Example 2, oral in comparison to intravenous administration): No indication for a relevant contribution of gastrointestinal metabolism
plasma concentration ([4]; orally administered at 10 mg/kg): 243 ng/mL
plasma concentration ([4]; orally administered at 30 mg/kg): 1314 ng/mL
plasma concentration ([4]; orally administered at 100 mg/kg): 10999 ng/mL
oral bioavailability [5]: ~5.8%
absolute bioavailability (Fabs) [6]: 5.23%
bioavailability of oral edaravone, of the i.v. delivery [7]: 38%
cognitive deficits (escaping latency in platform testing, annulus crossing in probing test) (APP/PS1 mice): prominently attenuated
Aβ levels in the brain (APP/PS1 mice; oral intake): significantly reduced
Aβ plaque burden in the hippocampus and neocortex (APP/PS1 mice; oral intake): markedly alleviated

Ratio conjugate-to-parent drug (AUClast) [1, 8]: 9.9 ± 2.7
Ratio conjugate-to-parent drug (AUClast) [1, 9]: 9.5 ± 2.8
Structure (SMILES): Cc1cc(OS(=O)(=O)O)n(-c2ccccc2)n1 [Sulfate conjugate]
